From patent US20250197387A1, “BCL-XL DEGRADERS AND USES THEREOF” (Kymera Therapeutics, Inc., priority 2021, published 2025) come the findings set out here.

The term Dmax denotes the largest share of the target that was removed. As usually defined, the DC50 is the concentration giving 50% degradation.

Where two headings read alike, the source gives them in different places. Some results are limits rather than exact numbers.

The target of this assay is T1, BCL-XL (Homo sapiens, UniProt Q07817).
T1 construct: endogenous in cells; host or cells: MOLT-4
T1 sequence (Q07817 whole entry): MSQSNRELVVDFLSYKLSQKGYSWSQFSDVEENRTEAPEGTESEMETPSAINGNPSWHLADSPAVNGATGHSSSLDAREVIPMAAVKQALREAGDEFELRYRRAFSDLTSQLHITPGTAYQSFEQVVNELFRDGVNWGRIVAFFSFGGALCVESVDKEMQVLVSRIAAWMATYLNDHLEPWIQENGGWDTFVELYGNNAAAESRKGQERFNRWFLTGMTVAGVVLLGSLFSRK
The assay can be described thus: BCL-XL degradation assay, western blot in MOLT-4 cells, 16 h. Format: cell-based. As to conditions: for DC50: read-out: Bcl-xL WB in MOLT-4 degradation 16 h: Mean external-Abs DC50. How it is done:
Compounds treatment: compounds were reconstituted in DMSO to make a stock concentration of 10 mM. MOLT-4 cells were maintained in RPMI-1640+10% FBS+1% Penicillin-Streptomycin. Cells were seeded into 6-well plates in 2 mL at the seeding density of 2e6 cells/mL. Compounds were added to the cells to a final concentration ranging 0.02-10 μM. After 16 hr incubation at 37° C., in a CO2 incubator, cells were collected in an Eppendorf tube and centrifuged at 200×g for 5 minutes, the supernatant removed and pellets washed with ice-cold PBS, centrifuged and supernatant removed again. Then. 50 μl of pre-chilled RIPA lysis buffer (Boston BioProducts. BP-115D) with protease and phosphatase inhibitors (Roche Applied Science. #04906837001 and #04693116001) was added into cell pellet to lyze the cells for 20 minutes under 4° C. Cell lysates were spin at 13000 rpm for 10 minutes. Supernatants were collected and protein concentration was measured by BCA assay kit (Solarbio. PC0020-500) following the manufacturer's protocol. Samples' final protein concentration was adjusted to 3.75 μg/uL with the RIPA lysis buffer based on BCA assay results and 4× loading buffer (Invitrogen. NP0007) was added into the samples and samples were heated to 85° C., for 10 min and then let cool at RT. Samples were centrifuged at 13000 rpm for 10 min and then loaded into a 26-well NuPAGER. Novex 4-12% Bis-Tris Midi Gel (Invitrogen. WG1403BOX) and run in NuPAGER MOPS SDS Running Buffer (Invitrogen. NP0001) for 180 minutes at 70 V into a XCell4 SureLock™ Midi-Cell Runner (Invitrogen. WR0100). Gel were transferred using the Invitrogen iBlot gel transfer device (Invitrogen. IB21001) and the nitrocellulose transfer stacks (Invitrogen, IB23001) with Program PO for 9 minutes. The membrane was then blocked with 5% bovin serum albumin for 1 hr at RT, then incubated with primary antibodies diluted in blocking buffer (LI-COR. 927-60001) and shake at 4° C., overnight. The primary antibodies were anti-BCL-xL antibody (CST. 2762:1:1000), anti-beta-actin (CST. 3700; 1:5000) and anti-GAPDH (CST. 97166:1:5000). Membranes were then washed three times with PBST for 15 minutes at RT. Secondary antibodies IR-Dye 680 CW Goat anti Mouse IgG (LI-COR. 926-68070) and IR-Dye 800 CW Goat anti Rabbit IgG (LI-COR. 926-32211) were diluted at a ratio of 1:10000 into PBST and membranes incubated for 1 hour at RT. Membranes were then washed three times with PBST for 15 minutes at RT. The western blot images were obtained using Odyssey Imaging System and quantified using Image Studio Lite Ver 5.2 software.
The letter codes for BCL-XL DC50 include: A (<0.01 μM); B (0.01-0.1 μM); C (>[…]); D (>0.5-1.0 μM); and E (>1.0 μM). The letter codes for Dmax % include A (>75%); B (50 to 75%); C (<50%).

Setting [1] is: western blot, MOLT-4 cells, 16 h, read-out: Bcl-xL WB in MOLT-4 degradation 16 h: Average Dmax %.
The mark [2] stands for this setting: western blot, MOLT-4 cells, 16 h.

In the case of `Cc1ncsc1-c1ccc([C@H](C)NC(=O)[C@@H]2C[C@@H](O)CN2C(=O)[C@@H](NC(=O)CCCCCS(=O)(=O)NC(=O)c2nc(N3CCc4cccc(C(=O)Nc5nc6ccccc6s5)c4C3)sc2CCCOc2ccc(C#CCN(C)C)cc2F)C(C)(C)C)cc1` [I-26], the Dmax under setting [1] is greater than 75%. In addition, the DC50 under setting [2] is less than 10 nM.

As to `Cc1ncsc1-c1ccc([C@H](C)NC(=O)[C@@H]2C[C@@H](O)CN2C(=O)[C@@H](NC(=O)CCc2cccc(F)c2OCCCc2sc(N3CCc4cccc(C(=O)Nc5nc6ccccc6s5)c4C3)nc2C(=O)O)C(C)(C)C)cc1` [I-30], the Dmax under setting [1] is less than 50%. For the same compound, the DC50 under setting [2] is greater than 1000 nM.

With `Cc1ncsc1-c1ccc([C@H](C)NC(=O)[C@@H]2C[C@@H](O)CN2C(=O)[C@@H](NC(=O)N2CC3(CCC(C(=O)N4CCN(CC[C@H](CSc5ccccc5)Nc5ccc(S(=O)(=O)NC(=O)c6ccc(N7CCN(CC8=C(c9ccc(Cl)cc9)CCC(C)(C)C8)CC7)cc6)cc5S(=O)(=O)C(F)(F)F)CC4)CC3)C2)C(C)(C)C)cc1` [I-125], the maximal degradation (Dmax) under setting [1] is less than 50%. Moreover, the DC50 under setting [2] is greater than 1000 nM.

In the case of `Cc1cc(N(CCN(C)C(=O)CCCCCCCCOc2cc(-c3scnc3C)ccc2CNC(=O)[C@@H]2C[C@@H](O)CN2C(=O)[C@@H](NC(=O)C2(F)CC2)C(C)(C)C)c2ccc(-c3cnn(CC4CCCCC4)c3C)c(C(=O)O)n2)nnc1Nc1nc2ccccc2s1` [I-104], the Dmax under setting [1] was less than 50%. In addition, the DC50 under setting [2] was greater than 1000 nM.

Take `Cc1ncsc1-c1ccc(CNC(=O)[C@@H]2C[C@@H](O)CN2C(=O)[C@@H](NC(=O)C2(F)CC2)C(C)(C)C)c(OCCCCCCCCC(=O)N(C)CC#Cc2ccc(OCCCc3sc(N4CCc5cccc(C(=O)Nc6nc7ccccc7s6)c5C4)nc3C(=O)O)c(F)c2)c1` [I-386]: the Dmax under setting [1] was greater than 75%. In addition, the DC50 under setting [2] was 10 to 100 nM.

Regarding `Cc1ncsc1-c1ccc([C@H](C)NC(=O)[C@@H]2C[C@@H](O)CN2C(=O)[C@@H](NC(=O)C2(F)CC2)C(C)(C)C)c(OCC(=O)N2CCN(CC[C@H](CSc3ccccc3)Nc3ccc(S(=O)(=O)NC(=O)c4ccc(N5CCN(CC6=C(c7ccc(Cl)cc7)CCC(C)(C)C6)CC5)cc4)cc3S(=O)(=O)C(F)(F)F)CC2)c1` [I-112], the Dmax under setting [1] was 50 to 75%. Also, the DC50 under setting [2] lay in the range of 500 to 1000 nM.

Consider `Cc1ncsc1-c1ccc(CNC(=O)[C@@H]2C[C@@H](O)CN2C(=O)C(c2cc(OCCCCCCCCC(=O)N(C)CC#Cc3ccc(OCCCc4sc(N5CCc6cccc(C(=O)Nc7nc8ccccc8s7)c6C5)nc4C(=O)O)c(F)c3)no2)C(C)C)cc1` (stereo partly drawn) [I-88], for which the Dmax under setting [1] is greater than 75%. Moreover, the DC50 under setting [2] was in the range of 10 to 100 nM.

With `Cc1ncsc1-c1ccc(CNC(=O)[C@@H]2C[C@@H](O)CN2C(=O)[C@@H](NC(=O)C2(F)CC2)C(C)(C)C)c(O[C@H]2CC[C@H](N3CCN(CC[C@H](CSc4ccccc4)Nc4ccc(S(=O)(=O)NC(=O)c5ccc(N6CCN(CC7=C(c8ccc(Cl)cc8)CCC(C)(C)C7)CC6)cc5)cc4S(=O)(=O)C(F)(F)F)CC3)CC2)c1` (single isomer, unassigned) [I-114], the Dmax under setting [1] is less than 50%. For the same compound, the DC50 under setting [2] is greater than 1000 nM.

As for `Cc1ncsc1-c1ccc([C@H](C)NC(=O)[C@@H]2C[C@@H](O)CN2C(=O)[C@@H](NC(=O)CCCCCCCC(=O)N(C)CCCc2cccc(F)c2OCCCc2sc(N3CCc4cccc(C(=O)Nc5nc6ccccc6s5)c4C3)nc2C(=O)O)C(C)(C)C)cc1` [I-11], the Dmax under setting [1] was greater than 75%. In addition, under setting [2], the DC50 fell in the range of 100 to 500 nM.

Take `Cc1cc(N(CCN(C)C(=O)CCCOc2cc(-c3scnc3C)ccc2CNC(=O)[C@@H]2C[C@@H](O)CN2C(=O)[C@@H](NC(=O)C2(F)CC2)C(C)(C)C)c2ccc(-c3cnn(CC4CCCCC4)c3C)c(C(=O)O)n2)nnc1Nc1nc2ccccc2s1` [I-102]: under setting [1], the Dmax lay within 50 to 75%. In addition, the DC50 under setting [2] was greater than 1000 nM.

For `CC1(C)CCC(c2ccc(Cl)cc2)=C(CN2CCN(c3ccc(C(=O)NS(=O)(=O)c4ccc(N[C@H](CCN5CCN(C(=O)COc6ccccc6CNC(=O)[C@@H]6C[C@@H](O)CN6C(=O)[C@@H](NC(=O)C6(F)CC6)C(C)(C)C)CC5)CSc5ccccc5)c(S(=O)(=O)C(F)(F)F)c4)cc3)CC2)C1` [I-97], the Dmax under setting [1] was less than 50%. Further, the DC50 under setting [2] is greater than 1000 nM.

Regarding `Cc1ncsc1-c1ccc([C@H](C)NC(=O)[C@@H]2C[C@@H](O)CN2C(=O)[C@@H](NC(=O)CCCC(=O)N2CCN(CCCC3(Cn4ncc(-c5ccc(N6CCc7cccc(C(=O)Nc8nc9ccccc9s8)c7C6)nc5C(=O)O)c4C)CCCCC3)CC2)C(C)(C)C)cc1` [I-130], the Dmax under setting [1] is 50 to 75%. Besides, the DC50 under setting [2] lay in the range of 100 to 500 nM.

For the compound `Cc1ncsc1-c1ccc(CNC(=O)[C@@H]2C[C@@H](O)CN2C(=O)[C@@H](NC(=O)C2(F)CC2)C(C)(C)C)c(O[C@H]2C[C@H](C(=O)N3CCN(CC[C@H](CSc4ccccc4)Nc4ccc(S(=O)(=O)NC(=O)c5ccc(N6CCN(CC7=C(c8ccc(Cl)cc8)CCC(C)(C)C7)CC6)cc5)cc4S(=O)(=O)C(F)(F)F)CC3)C2)c1` [I-91], the Dmax under setting [1] was less than 50%. Also, under setting [2], the DC50 was greater than 1000 nM.

Regarding `C#Cc1ccc([C@H](C)NC(=O)[C@@H]2C[C@@H](O)CN2C(=O)[C@@H](NC(=O)N2CCC3(CCC(C(=O)N4CCN(CC[C@H](CSc5ccccc5)Nc5ccc(S(=O)(=O)NC(=O)c6ccc(N7CCN(CC8=C(c9ccc(Cl)cc9)CCC(C)(C)C8)CC7)cc6)cc5S(=O)(=O)C(F)(F)F)CC4)CC3)CC2)C(C)(C)C)cc1` [I-127], the Dmax under setting [1] was less than 50%. Further, the DC50 under setting [2] is greater than 1000 nM.

Consider `Cc1ncsc1-c1ccc(CNC(=O)[C@@H]2C[C@@H](O)CN2C(=O)[C@@H](NC(=O)C2(F)CC2)C(C)(C)C)c(OCCCC(=O)N(C)CCCc2cccc(F)c2OCCCc2sc(N3CCc4cccc(C(=O)Nc5nc6ccccc6s5)c4C3)nc2C(=O)O)c1` [I-12], for which the Dmax under setting [1] was in the range of 50 to 75%. Moreover, the DC50 under setting [2] lay within 500 to 1000 nM.

For `Cc1ncsc1-c1ccc(CNC(=O)[C@@H]2C[C@@H](O)CN2C(=O)C(c2cc(OCCCCCC(=O)N(C)CC#Cc3ccc(OCCCc4sc(N5CCc6cccc(C(=O)Nc7nc8ccccc8s7)c6C5)nc4C(=O)O)c(F)c3)no2)C(C)C)cc1` (stereo partly drawn) [I-87], under setting [1], the Dmax is greater than 75%. For the same compound, under setting [2], the DC50 was in the range of 10 to 100 nM.

Turning to `Cc1ncsc1-c1ccc(CNC(=O)[C@@H]2C[C@@H](O)CN2C(=O)[C@@H](NC(=O)C2(F)CC2)C(C)(C)C)c(OCCCN2CCN(CC[C@H](CSc3ccccc3)Nc3ccc(S(=O)(=O)NC(=O)c4ccc(N5CCN(CC6=C(c7ccc(Cl)cc7)CCC(C)(C)C6)CC5)cc4)cc3S(=O)(=O)C(F)(F)F)CC2)c1` [I-132, (2S,4R)—N-(2-(3-(4-((R)-3-((4-(N-(4-(4-((4′-chloro-4,4-dimethyl-3,4,5,6-tetrahydro-[1,1′-biphenyl]-2-yl)methyl)piperazin-1-yl)benzoyl)sulfamoyl)-2-((trifluoromethyl)sulfonyl)phenyl)amino)-4-(phenylthio)butyl)piperazin-1-yl)propoxy)-4 (4-methylthiazol-5-yl)benzyl)-1-((S)-2-(1-fluorocyclopropanecarboxamido)-3,3-dimethylbutanoyl)-4-hydroxypyrrolidine-2-carboxamide], the Dmax (MOLT-4, read-out: Bcl-xL WB in MOLT-4 degradation 16 h: Average Dmax %) was greater than 75%. The DC50 under setting [2] lay within 10 to 100 nM.

For `Cc1ncsc1-c1ccc(CNC(=O)[C@@H]2C[C@@H](O)CN2C(=O)[C@@H](NC(=O)C2(F)CC2)C(C)(C)C)c(OCCCCCCCC(=O)N(C)CC#Cc2cccc(F)c2OCCCc2sc(N3CCc4cccc(C(=O)Nc5nc6ccccc6s5)c4C3)nc2C(=O)O)c1` [I-20], the Dmax under setting [1] is greater than 75%. Moreover, the DC50 under setting [2] fell in the range of 100 to 500 nM.
